In patent US20100145266A1, “METHOD FOR LOADING STRUCTURED SURFACES” (priority 2007, published 2010):

Assays:
[1] = Stability of paclitaxel depending on pH; assay type: physicochemical
physchem = experiment: physchem
Method: Preferably 1 mg-150 mg, more preferably 10 mg to 90 mg and most preferably 40 mg to 60 mg of paclitaxel are dissolved in one ml of DMSO.

With `CC(=O)O[C@H]1C(=O)[C@@]2(C)[C@H]([C@H](OC(=O)c3ccccc3)[C@]3(O)C[C@H](OC(=O)[C@H](O)[C@@H](NC(=O)c4ccccc4)c4ccccc4)C(C)=C1C3(C)C)[C@]1(OC(C)=O)CO[C@@H]1C[C@@H]2O` (relative stereo) [paclitaxel, [2aR-[2a,4,4a,6,9(R*,S*),11,12,12a,12b]]-(benzoylamino)-hydroxybenzene propionic acid 6,12b-bis-(acetyloxy)-12-(benzoyloxy)-2a-3,4,4a,5,6,9,10,11,12,12a,12b-dodecahydro-4,11-dihydroxy-4a,8,13,13-tetramethyl-5-oxo-7,11-methano-1H-cyclodeca[3,4]benz[1,2-b]oxet-9-yl ester)] the “stability at alkaline pH” value ([1]; alkaline pH) was “comparatively instable”, the “stability at a pH between 3 and 5” value ([1]; pH between 3 and 5) was “especially stable” and the “solubility in anhydrous ethanol” value (physchem) was “highly soluble”. The “solubility in dimethyl sulfoxide (DMSO)” value (physchem) was “highly soluble”, the solubility in methanol (physchem) was “highly soluble” and the solubility (physchem; organic solvent or mixture) was no more than 150 mg/mL.
